From PubChem BioAssay AID1963845 (Molecular Pharmacology Branch, DTP, NCI, 2024)

Tested on: 429239-143-T-J1-PDC complex spheroid viability
Assay: Anticancer human tumor 429239-143-T-J1-PDC patient-derived small cell lung carcinoma cell line growth inhibition [POLQ]
Conditions: for IC50: curve of first compound; for viability, T/C: stronger effect = lower value
Procedure, shortened: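 Complex spheroid viability model combining PDC tumour cells with endothelial (HUVEC) and MSC stromal cells. Novobiocin, ART-558 or RP6685 were tested singly and in combination with standard and investigational anticancer drugs. Each was titrated in half-log steps from near clinical Cmax, or from 10 microM where Cmax was unknown.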

[1] = second compound 0.0316 µM, first compound 0.0316 µM
[2] = second compound 0.0316 µM, first compound 0.1 µM
[3] = second compound 0.0316 µM, first compound 0.316 µM
[4] = second compound 0.0316 µM, first compound 1 µM
[5] = second compound 0.0316 µM, first compound 3.16 µM
[6] = second compound 0.0316 µM, first compound 10 µM
[7] = second compound 0.1 µM, first compound 0.0316 µM
[8] = second compound 0.1 µM, first compound 0.1 µM
[9] = second compound 0.1 µM, first compound 0.316 µM
[10] = second compound 0.1 µM, first compound 1 µM
[11] = second compound 0.1 µM, first compound 3.16 µM
[12] = second compound 0.1 µM, first compound 10 µM
[13] = second compound 0.316 µM, first compound 0.0316 µM
[14] = second compound 0.316 µM, first compound 0.1 µM
[15] = second compound 0.316 µM, first compound 0.316 µM
[16] = second compound 0.316 µM, first compound 1 µM
[17] = second compound 0.316 µM, first compound 3.16 µM
[18] = second compound 0.316 µM, first compound 10 µM
[19] = second compound 1 µM, first compound 0.0316 µM
[20] = second compound 1 µM, first compound 0.1 µM
[21] = second compound 1 µM, first compound 0.316 µM
[22] = second compound 1 µM, first compound 1 µM
[23] = second compound 1 µM, first compound 3.16 µM
[24] = second compound 1 µM, first compound 10 µM
[25] = second compound 3.16 µM, first compound 0.0316 µM
[26] = second compound 3.16 µM, first compound 0.1 µM
[27] = second compound 3.16 µM, first compound 0.316 µM
[28] = second compound 3.16 µM, first compound 1 µM
[29] = second compound 3.16 µM, first compound 3.16 µM
[30] = second compound 3.16 µM, first compound 10 µM
[31] = second compound 10 µM, first compound 0.0316 µM
[32] = second compound 10 µM, first compound 0.1 µM
[33] = second compound 10 µM, first compound 0.316 µM
[34] = second compound 10 µM, first compound 1 µM
[35] = second compound 10 µM, first compound 3.16 µM
[36] = second compound 10 µM, first compound 10 µM
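Also: luminescence signal used as surrogate measure of viable cells; spheroids exposed to compounds for seven days before readout.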
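For viability, T/C in this document: 100% = DMSO vehicle control viability as luminescence relative to vehicle.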

For `COc1cccc2c1C(=O)c1c(O)c3c(c(O)c1C2=O)CC(O)(C(=O)CO)CC3OC1CC(N)C(O)C(C)O1` (stereo unspecified) + COC1C(OC(N)=O)C(O)C(Oc2ccc3c(O)c(NC(=O)c4ccc(O)c(CC=C(C)C)c4)c(=O)oc3c2C)OC1(C)C, the IC50 (second compound 0.0316 µM) was 41.1 nM, the IC50 (second compound 0.1 µM) was 36.4 nM and the IC50 (second compound 0.316 µM) was 48.2 nM. The IC50 (second compound 1 µM) was 37.6 nM, the IC50 (second compound 3.16 µM) was 34.6 nM and the IC50 (second compound 10 µM) was 34 nM. For the same compound, the viability, T/C [1] was 60.4%, the viability, T/C [2] was 13.3% and the viability, T/C [3] was 14.5%. It also gave a viability, T/C [4] of 0.23%, a viability, T/C [5] of 0.15% and a viability, T/C [6] of 0.13%. For the same compound, the viability, T/C [7] was 55.3%, the viability, T/C [8] was 15.8% and the viability, T/C [9] was 12.3%. For the same compound, the viability, T/C [10] was 0.13%, the viability, T/C [11] was 0.08% and the viability, T/C [12] was 0.1%. It also gave a viability, T/C [13] of 68.8%, a viability, T/C [14] of 14.4% and a viability, T/C [15] of 14.2%. It also gave a viability, T/C [16] of 0.13%, a viability, T/C [17] of 0.12% and a viability, T/C [18] of 0.12%. It also gave a viability, T/C [19] of 56.3%, a viability, T/C [20] of 16.2% and a viability, T/C [21] of 12.7%. For the same compound, the viability, T/C [22] was 0.13%, the viability, T/C [23] was 0.16% and the viability, T/C [24] was 0.48%. It also gave a viability, T/C [25] of 53.5%, a viability, T/C [26] of 15.6% and a viability, T/C [27] of 11.9%. The viability, T/C [28] was 0.14%, the viability, T/C [29] was 0.18% and the viability, T/C [30] was 0.3%. It also gave a viability, T/C [31] of 52.8%, a viability, T/C [32] of 14% and a viability, T/C [33] of 14.8%. The viability, T/C [34] was 0.24%, the viability, T/C [35] was 0.29% and the viability, T/C [36] was 0.22%.
With `C#Cc1c(F)ccc2cc(O)cc(-c3ncc4c(N5CC6CCC(C5)N6)nc(OCC56CCCN5CC(F)C6)nc4c3F)c12` (stereo unspecified) + COC1C(OC(N)=O)C(O)C(Oc2ccc3c(O)c(NC(=O)c4ccc(O)c(CC=C(C)C)c4)c(=O)oc3c2C)OC1(C)C the IC50 (second compound 0.0316 µM) was over 10000 nM, the IC50 (second compound 0.1 µM) was over 10000 nM and the IC50 (second compound 0.316 µM) was over 10000 nM. The IC50 (second compound 1 µM) was over 10000 nM, the IC50 (second compound 3.16 µM) was over 10000 nM and the IC50 (second compound 10 µM) was over 10000 nM. It also gave a viability, T/C [1] of 109%, a viability, T/C [2] of 92.7% and a viability, T/C [3] of 113%. The viability, T/C [4] was 92.9%, the viability, T/C [5] was 99.9% and the viability, T/C [6] was 92.9%. For the same compound, the viability, T/C [7] was 104%, the viability, T/C [8] was 113% and the viability, T/C [9] was 103%. It also gave a viability, T/C [10] of 97.7%, a viability, T/C [11] of 93.2% and a viability, T/C [12] of 91.1%. It also gave a viability, T/C [13] of 104%, a viability, T/C [14] of 95.3% and a viability, T/C [15] of 99.2%. The viability, T/C [16] was 98.8%, the viability, T/C [17] was 95.2% and the viability, T/C [18] was 106%. The viability, T/C [19] was 94.7%, the viability, T/C [20] was 106% and the viability, T/C [21] was 96%. For the same compound, the viability, T/C [22] was 105%, the viability, T/C [23] was 98.8% and the viability, T/C [24] was 97.4%. It also gave a viability, T/C [25] of 103%, a viability, T/C [26] of 101% and a viability, T/C [27] of 102%. The viability, T/C [28] was 92.9%, the viability, T/C [29] was 114% and the viability, T/C [30] was 98.2%. For the same compound, the viability, T/C [31] was 101%, the viability, T/C [32] was 98.7% and the viability, T/C [33] was 91.5%. It also gave a viability, T/C [34] of 92.5%, a viability, T/C [35] of 106% and a viability, T/C [36] of 102%.
Work on `Cn1ncnc1[C@H]1c2n[nH]c(=O)c3cc(F)cc(c23)N[C@@H]1c1ccc(F)cc1` + Nc1ccc(C#CCN(C(=O)Cc2ncc(C(F)(F)F)cc2C(F)(F)F)c2ccc(F)cc2)nn1 yielded an IC50 (second compound 0.0316 µM) of over 100 nM, an IC50 (second compound 0.1 µM) of over 100 nM and an IC50 (second compound 0.316 µM) of over 100 nM. For the same compound, the IC50 (second compound 1 µM) was over 100 nM, the IC50 (second compound 3.16 µM) was over 100 nM and the IC50 (second compound 10 µM) was over 100 nM. For the same compound, the viability, T/C (second compound 0.0316 µM, first compound 0.000316 µM) was 101%, the viability, T/C (second compound 0.0316 µM, first compound 0.001 µM) was 104% and the viability, T/C (second compound 0.0316 µM, first compound 0.00316 µM) was 89.8%. The viability, T/C (second compound 0.0316 µM, first compound 0.01 µM) was 83.4%, the viability, T/C [1] was 83.1% and the viability, T/C [2] was 60.8%. It also gave a viability, T/C (second compound 0.1 µM, first compound 0.000316 µM) of 101%, a viability, T/C (second compound 0.1 µM, first compound 0.001 µM) of 104% and a viability, T/C (second compound 0.1 µM, first compound 0.00316 µM) of 95.3%. The viability, T/C (second compound 0.1 µM, first compound 0.01 µM) was 83.1%, the viability, T/C [7] was 84.7% and the viability, T/C [8] was 60.4%. For the same compound, the viability, T/C (second compound 0.316 µM, first compound 0.000316 µM) was 104%, the viability, T/C (second compound 0.316 µM, first compound 0.001 µM) was 101% and the viability, T/C (second compound 0.316 µM, first compound 0.00316 µM) was 93.7%. It also gave a viability, T/C (second compound 0.316 µM, first compound 0.01 µM) of 83.8%, a viability, T/C [13] of 79.8% and a viability, T/C [14] of 67.1%. It also gave a viability, T/C (second compound 1 µM, first compound 0.000316 µM) of 111%, a viability, T/C (second compound 1 µM, first compound 0.001 µM) of 112% and a viability, T/C (second compound 1 µM, first compound 0.00316 µM) of 95.1%. The viability, T/C (second compound 1 µM, first compound 0.01 µM) was 87.8%, the viability, T/C [19] was 81.7% and the viability, T/C [20] was 58%. For the same compound, the viability, T/C (second compound 3.16 µM, first compound 0.000316 µM) was 106%, the viability, T/C (second compound 3.16 µM, first compound 0.001 µM) was 91.4% and the viability, T/C (second compound 3.16 µM, first compound 0.00316 µM) was 94.2%. It also gave a viability, T/C (second compound 3.16 µM, first compound 0.01 µM) of 95.2%, a viability, T/C [25] of 75.8% and a viability, T/C [26] of 69.8%. For the same compound, the viability, T/C (second compound 10 µM, first compound 0.000316 µM) was 108%, the viability, T/C (second compound 10 µM, first compound 0.001 µM) was 91.7% and the viability, T/C (second compound 10 µM, first compound 0.00316 µM) was 101%. It also gave a viability, T/C (second compound 10 µM, first compound 0.01 µM) of 87.9%, a viability, T/C [31] of 74.2% and a viability, T/C [32] of 60.2%.
